The values that follow come from patent US8637526B2, “Pyrazolopyrimidine JAK inhibitor compounds and methods” (Genentech, Inc., priority 2008, dated 2014).

Read-outs that look alike come from different tables or passages of the source.

One assay addresses human TYK2 kinase domain (Homo sapiens (Human), UniProt P29597). Description: TYK2 Inhibition Assay Protocol (Caliper LabChip peptide phosphorylation). Type of assay: biochemical. As to conditions: enzymatic activity, 25 uM ATP; read-out: TYK2i Ki. From the text: (§1) The catalytically active kinase domain of human JAK1, JAK2, JAK3 or TYK2 was purified from extracts of SF9 insect cells infected with a recombinant baculovirus expression vector encoding the human JAK1, JAK2, JAK3 or TYK2 kinase domains (JAK1 amino acid residues N852-D1154 according to the numbering of GenBank sequence accession number P23458, JAK2 amino acid residues D812-G1132 according to the numbering of GenBank sequence accession number NP_004963.1; JAK3 amino acid residues S783-S1124 according to the numbering of GenBank sequence accession number P52333, and TYK2 amino acid residues N873-C1187 according to the numbering of GenBank sequence accession number P29597). The activity of the JAK1, JAK2, JAK3 or TYK2 kinase domains can be measured by a number of direct and indirect methods, including quantification of phosphorylation of peptide substrates derived from the human JAK3 protein (Saltzman et al., Biochem. Biophys. Res. Commun. 246:627-633 (2004)). The activity of the JAK1, JAK2, JAK3 or TYK2 kinase domains was measured in vitro by monitoring phosphorylation of JAK3 derived peptides using the Caliper LabChip technology.
(§2) The activity of the isolated JAK1 or TYK2 kinase domain was measured by monitoring phosphorylation of a peptide derived from JAK3 ([…] fluorescently labeled on the N-terminus with 5-carboxyfluorescein using the Caliper LabChip technology (Caliper Life Sciences, Hopkinton, Mass.). […] Reactions were incubated at 22° C. in 384-well polypropylene microtiter plates for 30 minutes and then stopped by addition of 25 uL of an EDTA containing solution (100 mM Hepes pH 7.2, 0.015% Brij-35, 150 mM EDTA), resulting in a final EDTA concentration of 50 mM. After termination of the kinase reaction, the proportion of phosphorylated product was determined as a fraction of total peptide substrate using the Caliper LabChip 3000 according to the manufacturer's specifications. Ki values were then determined using the Morrison tight binding model (Morrison, J. F., Biochim. Biophys. Acta. 185:269-296 (1969); William, J. W. and Morrison, J. F., Meth. Enzymol., 63:437-467 (1979)).

A further assay concerns the target human JAK2 kinase domain (Homo sapiens (Human), UniProt O60674). Description: JAK2 Inhibition Assay Protocol (Caliper LabChip peptide phosphorylation). Type of assay: biochemical. As to conditions: enzymatic activity, 25 uM ATP; read-out: JAK2i Ki.
Source text: Saltzman et al., Biochem. Biophys. Res. Commun. 246:627-633 (2004). The catalytically active kinase domain of human JAK2 was purified from extracts of SF9 insect cells infected with a recombinant baculovirus expression vector encoding the human JAK2 kinase domain (amino acid residues D812-G1132 according to the numbering of GenBank sequence accession number NP_004963.1). The activity of the JAK2 kinase domain can be measured by a number of direct and indirect methods, including quantification of phosphorylation of peptide substrates derived from the human JAK3 protein Saltzman et al., Biochem. Biophys. Res. Commun. 246:627-633 (2004). The activity of the JAK2 kinase domain was measured in vitro by monitoring phosphorylation of JAK3 derived peptides using the Caliper LabChip technology (see Examples).
The activity of the isolated kinase domain of JAK2 can be measured by monitoring phosphorylation of peptide substrates derived from the human JAK3 kinase in vitro Saltzman et al., Biochem. Biophys. Res. Commun. 246:627-633 (2004). The human JAK2 kinase domain was expressed with an N-terminal His6 tag followed by a thrombin cleavage site using the baculovirus expression vector system. The kinase domain expressed is defined as amino acid residues D812-G1132 according to the numbering of GenBank sequence accession number NP_004963.1. Recombinant DNA transfer vectors were co-transfected with BakPAK6 linearized DNA (Clontech Laboratories, Inc., Mountain View, Calif.) and the resulting viral stocks were amplified using standard protocols. Protein was produced in SF9 cells grown to a cell density of 2E6/mL in ESF921 media (Expression Systems LLC, Woodland, Calif.) and infected at an M.O.I. of 1 in Wave bioreactors. The cells were harvested 72 hours post infection, and active JAK2 enzyme was purified from the lysates of infected cells by Ni-NTA (Qiagen, Valencia, Calif.) column chromatography followed by Sephacryl S-200 (GE Healthcare, Piscataway, N.J.) column chromatography.
as §1
as §2, with “JAK2” for “JAK1 or TYK2”, “[…]” for “25 uL”, “model.” for “model (Morrison, J. F., Biochim. Biophys. Acta. 185:269-296 (1969); William, J. W. and Morrison, J. F., Meth. Enzymol., 63:437-467 (1979)).”

For another assay, the system named is TF-1 cells. The experiment in a line: IL-6-stimulated STAT3 phosphorylation in TF-1 cells (JAK1-dependent signaling, MSD). Type of assay: cell-based. As to conditions: Homo sapiens, read-out: IL6-pSTAT3 TF1 EC50. On the procedure:
The activities of compounds were determined in cell-based assays that are designed to measure JAK1 or JAK2-dependent signaling. Compounds were serially diluted in DMSO and incubated with TF-1 cells (American Type Culture Collection (ATCC); Manassas, Va.) in 384-well microtiter plates in OptiMEM medium without phenol red, 1% Charcoal/Dextran stripped FBS, 0.1 mM NEAA, 1 mM sodium pyruvate (Invitrogen Corp.; Carlsbad, Calif.) at a final cell density of 100,000 cells per well and a final DMSO concentration of 0.2%. Human recombinant IL-6 (R&D systems; Minneapolis, Minn.) or EPO (Invitrogen Corp.; Carlsbad, Calif.) was then added at a final concentration of 30 ng/mL or 10 Units/mL, respectively, to the microtiter plates containing the TF-1 cells and compound and the plates were incubated for 30 min at 37° C. Compound-mediated effects on STAT3 or STATS phosphorylation were then measured in the lysates of cells incubated in the presence of IL-6 or EPO, respectively, using the Meso Scale Discovery (MSD) technology (Gaithersburg, Md.) according to the manufacturer's protocol and EC50 values were determined.

[1] abbreviates: 0.5 h, TF-1 cells, IL-6 30 ng/mL, 30 min.

human TYK2 kinase domain, sequence (P29597 873-1187): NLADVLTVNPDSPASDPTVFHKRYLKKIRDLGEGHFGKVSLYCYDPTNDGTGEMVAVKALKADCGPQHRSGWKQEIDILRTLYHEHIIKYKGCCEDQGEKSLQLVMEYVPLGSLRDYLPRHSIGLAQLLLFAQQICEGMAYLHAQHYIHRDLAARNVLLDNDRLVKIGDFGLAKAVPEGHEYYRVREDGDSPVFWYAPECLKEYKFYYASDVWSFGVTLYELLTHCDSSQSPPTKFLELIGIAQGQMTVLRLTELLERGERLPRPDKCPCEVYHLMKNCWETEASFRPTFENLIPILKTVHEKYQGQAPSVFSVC
human JAK2 kinase domain, sequence (O60674 812-1132): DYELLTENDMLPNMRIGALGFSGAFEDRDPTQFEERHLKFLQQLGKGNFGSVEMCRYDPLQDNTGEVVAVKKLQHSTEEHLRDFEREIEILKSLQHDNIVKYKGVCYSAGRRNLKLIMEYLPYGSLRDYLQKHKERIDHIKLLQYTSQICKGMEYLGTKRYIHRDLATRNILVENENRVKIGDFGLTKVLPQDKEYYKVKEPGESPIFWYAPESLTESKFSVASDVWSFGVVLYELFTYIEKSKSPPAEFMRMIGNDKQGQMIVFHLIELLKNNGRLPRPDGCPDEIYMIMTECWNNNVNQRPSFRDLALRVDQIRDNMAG

Take `Cc1cc(NC(=O)c2cnn3ccc(N)nc23)n(-c2ccccc2C)n1` [Example 343, 5-Amino-pyrazolo[1,5-a]-pyrimidine-3-carboxylic acid (5-methyl-2-o-tolyl-2H-pyrazol-3-yl)-amide]: the Ki at human TYK2 kinase domain came to 97.6 nM; on human JAK2 kinase domain it was 4.2 nM. For the same molecule, the EC50 with TF-1 cells (setting [1]) was 380 nM.
With `Cc1nc(-c2ccccc2C)c(NC(=O)c2cnn3ccc(N)nc23)s1` [Example 231, 5-amino-pyrazolo[1,5-a]pyrimidine-3-carboxylic acid (2-methyl-4-o-tolyl-thiazol-5-yl)-amide], the Ki on human TYK2 kinase domain was found to be 43.8 nM; at human JAK2 kinase domain, 1.8 nM. The EC50 in the assay with TF-1 cells (TF-1, 0.5 h) turned out to be 371 nM.
For `Cc1cc(NC(=O)c2cnn3ccc(N)nc23)n(-c2cc(Cl)ccc2C)n1` [Example 226], the Ki on human TYK2 kinase domain was 32.8 nM; at human JAK2 kinase domain, 0.5 nM. Besides, the EC50 in the assay on TF-1 cells (setting [1]) amounted to 170 nM.
Consider `Nc1ccn2ncc(C(=O)Nc3c[nH]nc3-c3cc(Cl)ccc3Cl)c2n1` [Example 248, 5-Amino-pyrazolo[1,5-a]-pyrimidine-3-carboxylic acid [3-(2,5-dichloro-phenyl)-1H-pyrazol-4-yl]-amide], for which the Ki on human TYK2 kinase domain is 4.1 nM; on human JAK2 kinase domain, 0.1 nM. Besides, the EC50 in the assay with TF-1 cells (setting [1]) is 165 nM.
For the molecule `O=C(N[C@H]1CC[C@H](O)CC1)c1cnn2ccc(NC3CCc4ccccc43)nc12` (stereo partly drawn) [Example 299, 5-(Indan-1-ylamino)-pyrazolo[1,5-a]pyrimidine-3-carboxylic acid (4-hydroxy-cyclohexyl)-amide], the Ki on human TYK2 kinase domain was found to be 50.9 nM; on human JAK2 kinase domain it was 0.8 nM. In the assay on TF-1 cells (setting [1]), the concentration giving a half-maximal response (EC50) is 1880 nM.
Regarding `O=C(NC1CCOCC1)c1cnn2ccc(NC3Cc4ccccc4C3)nc12` [Example 297, 5-(Indan-2-ylamino)-pyrazolo[1,5-a]pyrimidine-3-carboxylic acid (tetrahydro-pyran-4-yl)-amide], the Ki on human TYK2 kinase domain is 152 nM; on human JAK2 kinase domain it was 1.6 nM. In the assay with TF-1 cells (setting [1]), the EC50 worked out at 1400 nM.
For `Nc1ccn2ncc(C(=O)Nc3ccnn3-c3cc(Cl)ccc3Cl)c2n1` [Example 277, 5-Amino-pyrazolo[1,5-a]-pyrimidine-3-carboxylic acid [2-(2,5-dichloro-phenyl)-2H-pyrazol-3-yl]-amide] the same measures were 43.5 nM, 0.9 nM and 514 nM.
Turning to `Cc1cc(NC(=O)c2cnn3ccc(Nc4cccc(C(F)(F)F)c4)nc23)on1` [Example 240, 5-(3-Trifluoromethyl-phenylamino)-pyrazolo-[1,5-a]pyrimidine-3-carboxylic acid (3-methyl-isoxazol-5-yl)-amide], the Ki on human TYK2 kinase domain was 62.4 nM; on human JAK2 kinase domain, 3.2 nM. Moreover, the EC50 in the assay with TF-1 cells (setting [1]) is 1600 nM.
